Experimental findings from patent US10835500B2, “Medicament for accelerated wound healing” (Symrise AG, priority 2014, dated 2020) are described below.

One assay deals with HaCaT cells. Put plainly: In vitro wound scratch assay, HaCaT cells. Type of assay: cell-based, human. The conditions noted are these: HaCaT; for Sandalore-increased wound healing on coincubation: 48 hours, Sandalore 500 μM + antagonist 500 μM or inhibitor 10 μM; for effect of the substance alone on wound healing: antagonist 500 μM or inhibitor 10 μM alone. From the text:
The MAP kinases p38 and ERK1/2 are often associated with increased proliferation and migration in epidermal wound healing. For this reason, in a further physiological experiment, the effect of Sandalore® on “wound healing” of a confluent cell layer of HaCaT cells or primary keratinocytes was investigated. For this purpose, the wound scratch assay was used, which is an established in vitro method for initial investigations of wound healing processes in keratinocytes.
In order to investigate the role of the OR2AT4 receptor in this effect, a test was conducted to determine whether the two antagonists Oxyphenylon and Phenirat could again reduce the “wound healing” increased by Sandalore®. For this purpose, Sandalore® was mixed with one of the antagonists each in the same ratio, and the effect on “wound healing” of the HaCaT cells was again observed for 48 hours. […] The two antagonists alone had no effect on the “wound healing” (FIG. 18d). The role of the MAP kinases p38 and ERK1/2 was investigated by means of specific inhibitors of the kinases. For p38 MAPK, the […] SB203580 was used, and for ERK1/2 MAPK, the […] U0126 was used. […] The two inhibitors alone had no effect on the wound healing (FIG. 18d).
Effect of Sandalore® stimulation on human keratinocytes in an in vitro “wound healing” assay. Investigation of the “wound healing rate” of A) primary keratinocytes and B) HaCaT cells by means of a wound scratch assay in the presence of Sandalore® (500 μM) or 0.1% DMSO as a control. Left: Transmitted light images of the “wound” observed at various times. The growth margin of the cells was surrounded in black. Scale: 200 μm. Right: Quantitative evaluation of the wound scratch assay. The areas of the wounds were measured and compared to the initial wound (0 h). Mean values including standard error. Mann-Whitney U test; n=4 experiments. *: p<0.05; ***: p<0.001. C) Wound scratch assay in the presence of Sandalore® (500 μM) and one of the antagonists Oxyphenylon (500 μM) or Phenirat (500 μM) respectively, the p38 MAPK inhibitor 5B203580 (10 μM), or the ERK1/2 MAPK inhibitor U0126 (10 μM). The measured wound areas of the treated cells (after 48-hour stimulation) were compared to the control (0.1% DMSO). Mean values including standard error. Kruskal-Wallis test with multiple comparison; n=3 experiments. *: p<0.05. D) Controls for the wound scratch assay with Oxyphenylon (500 μM), Phenirat (500 μM), 5B203580 (10 μM), or U0126 (10 μM) carried out under C). The measured wound areas of the treated cells were compared to the control (0.1% DMSO). Mean value included.

In a further assay the test system is p38 MAPK. In words: Western Blot, phosphorylation of p38 MAPK in HaCaT cells. Type of assay: cell-based, human. The conditions noted are these: inhibitor 10 μM, Sandalore 500 μM. On the procedure:
(§1) In the following, an investigation was to be conducted to determine whether a MAPK signalling pathway is activated by Sandalore® stimulation in skin cells, and if so, which pathway is involved. For detection, HaCaT cells were stimulated for 0-30 min with 500 μM of Sandalore®, and the proteins were then isolated and used in Western Blot assays.
In order to reveal a possible interaction of the two MAPK signalling pathways, ERK1/2 phosphorylation in the presence of the p38 MAPK inhibitor SB203580 and p38 MAPK phosphorylation in the presence of the ERK1/2 MAPK inhibitor U0126 were investigated.
A) Western Blot for investigating the phosphorylation of the MAP kinases in HaCaT cells stimulated for 0, 5, 15 and 30 min with Sandalore®(500 μM). […] ERK1/2: 42/44 kDa; p38: 43 kDa; JNK/SAPK: 46/54 kDA; ▪-tubulin: 52 kDa. B) Quantitative evaluation of p38 and ERK1/2 phosphorylation of HaCaT cells stimulated for 30 min with Sandalore®(500 μM) or additionally with the p38 inhibitor 5B203580 (10 μM) or ERK1/2 inhibitor U0126 (10 μM). For evaluation, the ratio of the phosphorylated (p) and unphosphorylated proteins was established and compared to that of untreated cells. Mean values including standard error. Mann-Whitney U test. *: p<0.05; ***: p<0.001. In C), the inhibitors of the respective other MAP kinase were used, and phosphorylation was compared to the cells stimulated with Sandalore® (500 μM) alone. Mean values including standard error. Mann-Whitney U test. *: p<0.05. The Western Blot analyses were carried out with three different protein isolations.

The next assay deals with ERK1/2 MAPK. In words: Western Blot, phosphorylation of ERK1/2 MAPK in HaCaT cells. The format is cell-based, human. The conditions noted are these: inhibitor 10 μM, Sandalore 500 μM. On the procedure: as §1
In order to reveal a possible interaction of the two MAPK signalling pathways, ERK1/2 phosphorylation in the presence of the p38 MAPK inhibitor SB203580 and p38 MAPK phosphorylation in the presence of the ERK1/2 MAPK inhibitor U0126 were investigated. Phosphorylation was increased for both kinases in the presence of the respective inhibitors compared to the cells stimulated with Sandalore® only. This effect was significant for p38 MAPK (FIG. 17c).
Effect of Sandalore® stimulation on phosphorylation of MAP kinases in skin cells. A) Western Blot for investigating the phosphorylation of the MAP kinases in HaCaT cells stimulated for 0, 5, 15 and 30 min with Sandalore®(500 μM). In order to confirm uniform protein volume, ▪-tubulin was used as a control. ERK1/2: 42/44 kDa; p38: 43 kDa; JNK/SAPK: 46/54 kDA; ▪-tubulin: 52 kDa. B) Quantitative evaluation of p38 and ERK1/2 phosphorylation of HaCaT cells stimulated for 30 min with Sandalore®(500 μM) or additionally with the p38 inhibitor 5B203580 (10 μM) or ERK1/2 inhibitor U0126 (10 μM). For evaluation, the ratio of the phosphorylated (p) and unphosphorylated proteins was established and compared to that of untreated cells. Mean values including standard error. Mann-Whitney U test. *: p<0.05; ***: p<0.001. In C), the inhibitors of the respective other MAP kinase were used, and phosphorylation was compared to the cells stimulated with Sandalore® (500 μM) alone. Mean values including standard error. Mann-Whitney U test. *: p<0.05. The Western Blot analyses were carried out with three different protein isolations.
In general terms: In western blotting, separated proteins are transferred to a membrane and probed.

Assay [1] concerns the target T1, recombinantly expressed OR2AT4 (Homo sapiens, UniProt A6NND4).
T1 construct: expressed in transfected cells; host or cells: Hana3A cells, transient transfection with pcDNA3-OR2AT4 by the calcium phosphate method
T1 sequence (A6NND4 1-320): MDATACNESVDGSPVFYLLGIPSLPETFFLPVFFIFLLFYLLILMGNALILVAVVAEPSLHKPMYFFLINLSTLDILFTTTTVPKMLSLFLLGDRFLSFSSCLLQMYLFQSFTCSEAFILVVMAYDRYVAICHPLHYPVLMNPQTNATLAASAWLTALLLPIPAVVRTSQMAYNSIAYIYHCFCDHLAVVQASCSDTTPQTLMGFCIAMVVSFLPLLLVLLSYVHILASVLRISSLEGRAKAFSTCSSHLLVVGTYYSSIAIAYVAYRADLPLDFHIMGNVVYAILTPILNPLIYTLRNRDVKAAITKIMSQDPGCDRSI
Put plainly: CRE dual luciferase assay in OR2AT4-transfected Hana3A cells. Type of assay: cell-based. The conditions noted are these: for activation of OR2AT4 in the luciferase assay: up to the highest useable concentrations 10-25 μM. From the text: In order to verify calcium imaging results and investigate dose-dependent activation of OR2AT4, a further method of deorphanization based on a dual luciferase system was used. In this method, in addition to the OR, two luciferases were introduced into the Hana3A cells. When the expressed OR is activated by an odorant and cAMP is formed in the further course of the signal cascade, this initiates expression of firefly luciferase via CRE (cAMP response elements). The second luciferase, Renilla luciferase, serves as a control for transfection and vitality of the cells. By calculating the two luciferase values, the activation capacity of an OR by an odorant can be determined. In the CRE luciferase assay, the odorant remains on the cells for hours in order to ensure that the luciferase is expressed. Because of the longer incubation time of the odorants and the possibility of activating more receptors in a 96-well format, this method is more sensitive than calcium imaging and is well-suited for establishing dose-response relationships.
For Brahmanol, however, a higher concentration (≥75 μM) was required than for Sandalore® (≥25 μM) in order to produce a significant effect at the receptor (FIG. 3c).
(§2) Determination of receptive field of recombinantly expressed OR2AT4. […] As a control, untransfected Hana3A cells were simulated with Sandalore®. 100 μM of ATP was used at the end of each measurement as a positive control stimulus. […] The mean response rate including standard error of the cells is shown relative to the Ringer control. […] Isobornyl.: isobornyl cyclohexanol; S. öl: sandalwood oil. Kruskal-Wallis test with multiple comparison. *: p<0.05. […] Significance was determined between Hana3A cells transfected with OR2AT4-pcDNA3 and pcDNA3 without an insert. The dots show mean normalized luciferase-activity including standard error. Mann-Whitney U test; n=3 experiments. *: p<0.05; **: p<0.01; ***: p<0.001.

Assay [2] deals with T1, recombinantly expressed OR2AT4. Put plainly: Calcium imaging of transiently OR2AT4-transfected Hana3A cells. The conditions noted are these: 1 mM odorant, 20 s stimulation, OR2AT4-transfected Hana3A cells. The format is cell-based. On the procedure: Hana3A cells expressing stable endogenous olfactory transduction factors, which specifically target the incorporation of ORs into the cell membrane and thus improve activation capacity, were used as a heterologous expression system. Moreover, the 20 first N-terminal amino acids of rhodopsins (Rho-tag) were added before the N-terminus of the coding sequence of the OR, also in order to support heterologous expression.
A method established at the Department of Cell Physiology of Ruhr University Bochum for deorphanization studies is calcium imaging, in which activation of an OR by an odorant is visualized by a change in the intracellular calcium concentration of transfected cells using a fluorescent dye [cf. Wetzel et al. in: J. Neurosci. 19, pp. 7426-7433 (1999); Spehr et al. in: Science 299, pp. 2054-2058 (2003); Neuhaus et al. in: J. Biol. Chem. 284, pp. 16218-16225 (2009)]. In this method, the Hana3A cells are briefly (20 s) stimulated with an odorant and selected for odorant screenings of high concentrations (up to 1 mM) in order to confirm activation of ORs weakly expressed in Hana3A cells.
The activation of OR2AT4 by Sandalore® was first investigated by the calcium imaging method.
Odorants can not only activate a receptor, but can also act as antagonists to an OR.
as §2
Antagonists of recombinantly expressed OR2AT4. […] 100 μM of ATP was used at the end of each measurement as a positive control stimulus. […] The mean response rate including standard error of the cells is shown relative to the Ringer control. Number of measurements: Ringer (23), Sandalore® (22), Sandalore®+dimetol (11), dimetol (11), Phenirat (14), Sandalore®+Phenirat (22), Oxyphenylon (12), and Sandalore®+Oxyphenylon (20). S: Sandalore®. Kruskal-Wallis test with multiple comparison. *: p<0.05.

For the compound `N#CC(=C(/N)Sc1ccccc1N)/C(C#N)=C(\N)Sc1ccccc1N` [U0126], in the assay with HaCaT cells, the “Sandalore-increased wound healing on coincubation” value is “again reduced to the normal level” and the “effect of the substance alone on wound healing” value is recorded as “no effect”. Moreover, in the assay with p38 MAPK, the “increase of p38 MAPK phosphorylation in the presence of the ERK1/2 MAPK inhibitor compared to Sandalore only” value was “significant”. For the same compound, in the assay with ERK1/2 MAPK (30 min), the “Sandalore-induced ERK1/2 MAPK phosphorylation with ERK1/2 inhibitor” value is listed as “significantly reduced”.
For the compound isobornyl cyclohexanol, the “activation of OR2AT4 in the luciferase assay” value (shortened to “activation of OR2AT4”) in assay [1] was “no increased activation of OR2AT4”. Moreover, in assay [2], the “response rate of the Hana3A cells relative to the Ringer control” value is “only Brahmanol showed an increased response rate”.
For the compound `CC/C(=C\CC1CC=C(C)C1(C)C)CO` (stereo not shown) [Sandranol], the “reaction in the CRE luciferase assay” value in assay [1] (at the investigated concentration (≥50 μM)) was “no reaction”. Also, in assay [2], the “response rate of the Hana3A cells relative to the Ringer control” value is recorded as “only Brahmanol showed an increased response rate”.
Take `C[S+]([O-])c1ccc(-c2nc(-c3ccncc3)c(-c3ccc(F)cc3)[nH]2)cc1` (stereo not shown) [SB203580]: in the assay with HaCaT cells, the “Sandalore-increased wound healing on coincubation” value was “again reduced to the normal level” and the “effect of the substance alone on wound healing” value is given as “no effect”. For the same compound, the “Sandalore-induced p38 MAPK phosphorylation with p38 inhibitor” value with p38 MAPK (30 min) is listed as “significantly reduced”. In addition, the “ERK1/2 phosphorylation in the presence of the p38 MAPK inhibitor compared to Sandalore only” value with ERK1/2 MAPK is on record as “increased”.
For the compound `CC1(CO)CC1CC1CC2CC2(C)C1(C)C` (stereo not shown) [Javanol], the “activation of OR2AT4” value in assay [1] is listed as “no increased activation of OR2AT4”. Also, the “response rate of the Hana3A cells relative to the Ringer control” value in assay [2] is on record as “only Brahmanol showed an increased response rate”.
Take `CC1=CCC(C=CC(C)(C)C(C)O)C1(C)C` (stereo not shown) [Polysantol]: in assay [1], the “activation of OR2AT4” value is “no increased activation of OR2AT4”. For the same compound, in assay [2], the “response rate of the Hana3A cells relative to the Ringer control” value was “only Brahmanol showed an increased response rate”.
